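Test compounds were applied to cells in 96-well plates for 48 hours at 5 doses. Abbreviation: GI50, concentration required for 50% inhibition of growth.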 The source made the active and inactive calls. No stated cut-off is given here; in the data, active = GI50 up to about 1.1 µM and inactive = higher. A value given as a limit tells only on which side of the number the result lay.

The source of these data is ChEMBL document CHEMBL1201862, “PubChem BioAssay data set” (2004).

Among the test systems are SW-620; HOP-92; MCF7; A549; RPMI-8226; Malme-3M; SN12C; SK-MEL-2; 786-0; A498; MDA-MB-435; OVCAR-4; DU-145; OVCAR-5; NCI/ADR-RES; UACC-62; EKVX; Hs-578T; HL-60.
Common to all, as to assay: NCI-60 cell line screen, 48 h

In the case of `CC1OC(OCC2OC(Oc3ccc(C4CC(=O)c5c(O)cc(O)cc5O4)cc3O)C(O)C(O)C2O)C(O)C(O)C1O` (stereo not given), the GI50 in the assay with SW-620, in the assay on HOP-92, in the assay with MCF7, with A549, in the assay on RPMI-8226 and in the assay on Malme-3M was > 100 µM (inactive) in each case. For the same compound, the GI50 in the assay with SN12C, in the assay with SK-MEL-2, in the assay on 786-0, in the assay with A498, in the assay with MDA-MB-435 and with OVCAR-4 was > 100 µM (inactive) throughout. The GI50 with DU-145, in the assay on OVCAR-5, in the assay with NCI/ADR-RES, in the assay on UACC-62, in the assay on EKVX and in the assay on Hs-578T was > 100 µM (inactive) throughout. Also, the GI50 in the assay with HL-60 was > 100 µM (inactive).
In the case of `Cc1cccc2c1c(=O)c1c(O)cc3c(c1n2C)C=CC(C)(C)O3`, the GI50 with SW-620, in the assay with HOP-92, with MCF7, in the assay on A549, in the assay with RPMI-8226 and in the assay on Malme-3M was > 100 µM (inactive) in each case. In addition, the GI50 with SN12C, with SK-MEL-2, in the assay on 786-0, with A498, with MDA-MB-435 and with OVCAR-4 was > 100 µM (inactive) in each case. Moreover, the GI50 in the assay with DU-145 is > 100 µM (inactive); with OVCAR-5 it was > 100 µM (inactive); in the assay with NCI/ADR-RES, > 100 µM (inactive); with UACC-62, > 100 µM (inactive); in the assay on EKVX, 33.9 µM (inactive); in the assay on Hs-578T, > 100 µM (inactive). The GI50 with HL-60 was > 100 µM (inactive).
With `CNc1ccc2c(c1)Cc1ccccc1-2`, the GI50 is 53.6 µM (inactive) in the assay on SW-620; 21 µM (inactive) with HOP-92; 44.6 µM (inactive) in the assay on MCF7; 22.5 µM (inactive) in the assay with A549; 38.8 µM (inactive) in the assay with RPMI-8226; 37.9 µM (inactive) with Malme-3M. Besides, the GI50 with SN12C is 43.8 µM (inactive); in the assay with SK-MEL-2 it was 35.4 µM (inactive); in the assay on 786-0, 53 µM (inactive); with A498, 20 µM (inactive); with MDA-MB-435 it was 28.3 µM (inactive); with OVCAR-4 it was 26.5 µM (inactive). Also, the GI50 was 31.9 µM (inactive) with DU-145; 98.6 µM (inactive) in the assay on OVCAR-5; > 100 µM (inactive) in the assay with NCI/ADR-RES; 26.8 µM (inactive) in the assay on UACC-62; 12.7 µM (inactive) in the assay on EKVX; 33.3 µM (inactive) in the assay with Hs-578T. In addition, the GI50 in the assay on HL-60 was 20.3 µM (inactive).
Consider `CC(C)(C)OC(=O)c1ccc(NCC2=CC(=O)C=CC2=O)cc1`, for which the GI50 in the assay on SW-620 is 9.91 µM (inactive); with HOP-92 it was 1.93 µM (inactive); with MCF7, 0.706 µM (active); in the assay with A549 it was 18.1 µM (inactive); in the assay on RPMI-8226, 2.48 µM (inactive); with Malme-3M it was 2.89 µM (inactive). In addition, the GI50 in the assay on SN12C is 11.4 µM (inactive); in the assay with SK-MEL-2, 16.7 µM (inactive); in the assay on 786-0, 9.35 µM (inactive); in the assay with A498, 15.2 µM (inactive); in the assay on MDA-MB-435, 12.9 µM (inactive); in the assay with OVCAR-4, 8.85 µM (inactive). The GI50 in the assay on DU-145 was 16.1 µM (inactive); in the assay with OVCAR-5 it was 17.8 µM (inactive); with NCI/ADR-RES it was 8.93 µM (inactive); in the assay on UACC-62, 13.2 µM (inactive); in the assay on EKVX it was 14.8 µM (inactive); in the assay with Hs-578T, 15.7 µM (inactive). The GI50 in the assay with HL-60 was 1.03 µM (active).
As for `O=c1ccc2ccc(O)cc2o1` [UMBELLIFERONE], the GI50 in the assay with SW-620, in the assay with HOP-92, in the assay on MCF7, in the assay with A549, in the assay with RPMI-8226 and in the assay on Malme-3M was > 100 µM (inactive) in each case. Moreover, the GI50 in the assay on SN12C, with SK-MEL-2, in the assay on 786-0, with A498, with MDA-MB-435 and in the assay with OVCAR-4 was > 100 µM (inactive) each time. Further, the GI50 in the assay with DU-145, in the assay on OVCAR-5, with NCI/ADR-RES, with UACC-62, with EKVX and in the assay on Hs-578T was > 100 µM (inactive) each time. For the same compound, the GI50 in the assay on HL-60 was > 100 µM (inactive).
As to `CC(=O)C1=C(C)N2C(=NC3=C(CCc4ccccc43)C2c2ccc(Cl)cc2)S1` (stereo not given), the GI50 in the assay on SW-620 was > 33.3 µM (inactive); in the assay on HOP-92, 31 µM (inactive); in the assay with MCF7, 20.5 µM (inactive); with A549, 53.8 µM (inactive); in the assay on RPMI-8226, 2.12 µM (inactive); with Malme-3M it was 48.5 µM (inactive). The GI50 in the assay with SN12C was > 100 µM (inactive); with SK-MEL-2 it was > 45 µM (inactive); in the assay with 786-0 it was > 52.4 µM (inactive); with A498, 20.7 µM (inactive); in the assay on MDA-MB-435 it was > 43.1 µM (inactive); in the assay with OVCAR-4 it was > 36.1 µM (inactive). The GI50 was > 100 µM (inactive) in the assay with DU-145; > 100 µM (inactive) in the assay with OVCAR-5; > 73.8 µM (inactive) with NCI/ADR-RES; 58.7 µM (inactive) in the assay with UACC-62; 46.8 µM (inactive) in the assay with EKVX; > 64 µM (inactive) in the assay on Hs-578T. Further, the GI50 in the assay on HL-60 is 4.42 µM (inactive).
On to `N#Cc1nc(C#N)c(N)[nH]1`, for which the GI50 in the assay with SW-620, in the assay on HOP-92, with MCF7, in the assay on A549, in the assay on RPMI-8226 and in the assay with Malme-3M was > 100 µM (inactive) throughout. Moreover, the GI50 in the assay with SN12C, with SK-MEL-2, in the assay with 786-0, with A498, in the assay with MDA-MB-435 and in the assay with OVCAR-4 was > 100 µM (inactive) throughout. Further, the GI50 in the assay on DU-145, in the assay on OVCAR-5, in the assay on NCI/ADR-RES, in the assay with UACC-62, in the assay with EKVX and in the assay on Hs-578T was > 100 µM (inactive) each time. Also, in the assay on HL-60, the GI50 is > 100 µM (inactive).
As to `CCSC1=C(C#N)C2(CCCCC2)C2=C(O)CC(C)(C)CC2=N1`, the GI50 in the assay on SW-620 was > 100 µM (inactive); with HOP-92 it was 11.4 µM (inactive); in the assay on MCF7 it was 48.3 µM (inactive); in the assay with A549, 34.4 µM (inactive); in the assay on RPMI-8226, 70.3 µM (inactive); in the assay with Malme-3M, 17.3 µM (inactive). The GI50 was 60.7 µM (inactive) in the assay on SN12C; 54.8 µM (inactive) in the assay with SK-MEL-2; 31.8 µM (inactive) in the assay with 786-0; 24.4 µM (inactive) with A498; 42.1 µM (inactive) in the assay on MDA-MB-435; 18.8 µM (inactive) in the assay on OVCAR-4. Also, the GI50 was 25.5 µM (inactive) in the assay on DU-145; > 100 µM (inactive) in the assay with OVCAR-5; 39.4 µM (inactive) in the assay with NCI/ADR-RES; 25.6 µM (inactive) with UACC-62; 24.3 µM (inactive) with EKVX; 52.1 µM (inactive) in the assay on Hs-578T. Besides, the GI50 in the assay on HL-60 is > 100 µM (inactive).
For `O=C(NN1CCCCC1)c1cc2cc(CCl)ccc2oc1=O`, the GI50 in the assay with SW-620 is 23.1 µM (inactive); with HOP-92 it was 10.4 µM (inactive); in the assay on MCF7 it was 38.7 µM (inactive); with A549, 19.6 µM (inactive); in the assay on RPMI-8226, 24 µM (inactive); in the assay on Malme-3M, 10.5 µM (inactive). Besides, the GI50 is 18.4 µM (inactive) in the assay with SN12C; 11.9 µM (inactive) in the assay with SK-MEL-2; 16.5 µM (inactive) in the assay with 786-0; 75.2 µM (inactive) in the assay with A498; 18.5 µM (inactive) in the assay on MDA-MB-435; 18.4 µM (inactive) in the assay on OVCAR-4. Besides, the GI50 with DU-145 was 29.4 µM (inactive); in the assay on OVCAR-5, 17.2 µM (inactive); in the assay on NCI/ADR-RES, 23.1 µM (inactive); in the assay on UACC-62 it was 27.7 µM (inactive); in the assay with EKVX, 14.2 µM (inactive); in the assay with Hs-578T it was 16.3 µM (inactive). Further, the GI50 in the assay with HL-60 is 16.5 µM (inactive).
For the compound `CCOC(=O)/C=C(\C(=O)OCC)n1cc(C)c(=O)n(Cc2cn(CCCCOC(C)=O)nn2)c1=O`, the GI50 in the assay with SW-620 is 3.47 µM (inactive); with HOP-92, 2.15 µM (inactive); in the assay with MCF7 it was 5.47 µM (inactive); in the assay on A549, 19.4 µM (inactive); in the assay on RPMI-8226 it was 7.35 µM (inactive); with Malme-3M it was 2.04 µM (inactive). Also, the GI50 is 20.7 µM (inactive) in the assay with SN12C; 15.9 µM (inactive) with SK-MEL-2; 4.43 µM (inactive) in the assay on 786-0; 18.9 µM (inactive) in the assay with A498; 9.95 µM (inactive) in the assay on MDA-MB-435; 23.2 µM (inactive) in the assay on OVCAR-4. For the same compound, the GI50 in the assay with DU-145 is 19.8 µM (inactive); in the assay with OVCAR-5, 12.4 µM (inactive); with NCI/ADR-RES, 19.6 µM (inactive); in the assay on UACC-62, 15.9 µM (inactive); in the assay on EKVX, 9.04 µM (inactive); with Hs-578T, 16.3 µM (inactive). In addition, the GI50 in the assay on HL-60 was 2.27 µM (inactive).
